Source: the NIST ThermoML archive (doi:10.1016/j.jct.2004.03.005)

How the values were obtained:
[1] = for vapor or sublimation pressure: Crystal, Calculated from knudsen effusion weight loss; for Triple point temperature: Crystal 2, DTA
[2] = Molar enthalpy of transition or fusion; conditions: Crystal 2; DSC
[3] = molar heat capacity at constant pressure; conditions: 101.33 kPa, Small sample (50 mg) DSC

CCCc1nc2ccccc2[nH]1 [1H-benzimidazole, 2-propyl-]
[1]
Conditions | vapor or sublimation pressure [kPa]
344.53 K | 4.28e-05
352.14 K | 9.52e-05
355.33 K | 0.000131
362.01 K | 0.000266
364.33 K | 0.000324

Conditions | Molar enthalpy of transition or fusion [kcal/mol] | Triple point temperature [K]
[1] | – | 385.8
[2] | 0.359 | –

[3]
Conditions | molar heat capacity at constant pressure [J/K/mol]
268.15 K, Crystal 2 | 190.5
270.15 K, Crystal 2 | 192.6
275.15 K, Crystal 2 | 197.1
280.15 K, Crystal 2 | 201.5
285.15 K, Crystal 2 | 206.1
290.15 K, Crystal 2 | 210.1
295.15 K, Crystal 2 | 214.4
298.15 K, Crystal 2 | 217.1
300.15 K, Crystal 2 | 218.7
305.15 K, Crystal 2 | 223.2
310.15 K, Crystal 2 | 228.3
315.15 K, Crystal 2 | 234
320.15 K, Crystal 2 | 239.7
325.15 K, Crystal 2 | 245.7
330.15 K, Crystal 2 | 252.2
335.15 K, Crystal 2 | 258.6
340.15 K, Crystal 2 | 263.7
345.15 K, Crystal 2 | 268.3
350.15 K, Crystal 2 | 274.9
355.15 K, Crystal 2 | 282.4
360.15 K, Crystal 2 | 292.6
365.15 K, Crystal 2 | 306.3
400.15 K, Crystal 1 | 280.1
405.15 K, Crystal 1 | 285.2
410.15 K, Crystal 1 | 290.7
415.15 K, Crystal 1 | 297.5
420.15 K, Crystal 1 | 306.5

CC(C)c1nc2ccccc2[nH]1 [1H-benzimidazole, 2-(1-methylethyl)-]
Conditions | Molar enthalpy of transition or fusion [kcal/mol] | Triple point temperature [K]
[1] | – | 410.4
[2] | 0.239 | –

[3]
Conditions | molar heat capacity at constant pressure [J/K/mol]
268.15 K, Crystal 2 | 197
270.15 K, Crystal 2 | 199
275.15 K, Crystal 2 | 202.8
280.15 K, Crystal 2 | 206.9
285.15 K, Crystal 2 | 210.8
290.15 K, Crystal 2 | 214.4
295.15 K, Crystal 2 | 218.7
298.15 K, Crystal 2 | 220.6
300.15 K, Crystal 2 | 221.7
305.15 K, Crystal 2 | 224.5
310.15 K, Crystal 2 | 228
315.15 K, Crystal 2 | 230.9
320.15 K, Crystal 2 | 234.6
325.15 K, Crystal 2 | 238
330.15 K, Crystal 2 | 240.7
335.15 K, Crystal 2 | 245.2
340.15 K, Crystal 2 | 248.9
345.15 K, Crystal 2 | 252.7
350.15 K, Crystal 2 | 256
355.15 K, Crystal 2 | 260
360.15 K, Crystal 2 | 264
365.15 K, Crystal 2 | 267.4
370.15 K, Crystal 2 | 272
375.15 K, Crystal 2 | 276.3
380.15 K, Crystal 2 | 280.1
385.15 K, Crystal 2 | 284.6
425.15 K, Crystal 1 | 285.7
430.15 K, Crystal 1 | 288.4
435.15 K, Crystal 1 | 292.2
440.15 K, Crystal 1 | 298.2
445.15 K, Crystal 1 | 301.3
450.15 K, Crystal 1 | 308.5
455.15 K, Crystal 1 | 310.9
460.15 K, Crystal 1 | 314.8
463.15 K, Crystal 1 | 316.2
